Experimental data taken from article PMC5218480 (PLoS ONE, 2017).

System: MV-4-11 cells
Experiment: Gene expression microarray analysis (Affymetrix PrimeView) and GSEA
Format: cell-based, human
Set-up: RFU PODN (11730768_x_at) / Fold change /veh PODN (11730768_x_at) / RFU LINC00158 (11744669_a_at) / Fold change /veh LINC00158 (11744669_a_at) / RFU DUSP10 (11751237_a_at) / Fold change /veh DUSP10 (11751237_a_at) / RFU ID3 (11757404_x_at) / Fold change /veh ID3 (11757404_x_at) / RFU PLEKHG5 (11737974_s_at) / Fold change /veh PLEKHG5 (11737974_s_at) / RFU LRRC4B (11730491_at) / Fold change /veh LRRC4B (11730491_at) / RFU GIMAP4 (11747438_a_at) / Fold change /veh GIMAP4 (11747438_a_at) / RFU KRT8 (11758183_x_at) / Fold change /veh KRT8 (11758183_x_at) / RFU CNN1 (11734310_a_at) / Fold change /veh CNN1 (11734310_a_at) / RFU VPS37D (11726825_at) / Fold change /veh VPS37D (11726825_at) / RFU C10orf10 (11716522_x_at) / Fold change /veh C10orf10 (11716522_x_at) / RFU KIR2DL2 /// KIR2DL4 /// KIR2DL5A /// KIR2DL5B /// KIR2DS1 /// KIR2DS2 /// KIR2DS3 /// KIR2DS4 /// KIR3DL3 /// KIR3DL3 /// KIR3DS1 (11738374_at) / Fold change /veh KIR2DL2 /// KIR2DL4 /// KIR2DL5A /// KIR2DL5B /// KIR2DS1 /// KIR2DS2 /// KIR2DS3 /// KIR2DS4 /// KIR3DL3 /// KIR3DL3 /// KIR3DS1 (11738374_at) / RFU C1QL1 (11718748_at) / Fold change /veh C1QL1 (11718748_at) / RFU TMPRSS4 (11747572_a_at) / Fold change /veh TMPRSS4 (11747572_a_at) / RFU HAMP (11756126_x_at) / Fold change /veh HAMP (11756126_x_at) / RFU RNFT2 (11725882_a_at) / Fold change /veh RNFT2 (11725882_a_at) / RFU NR4A2 (11747474_a_at) / Fold change /veh NR4A2 (11747474_a_at) / RFU ABCC12 (11746883_a_at) / Fold change /veh ABCC12 (11746883_a_at) / RFU TMEM136 (11760407_x_at) / Fold change /veh TMEM136 (11760407_x_at) / RFU CLDN22 /// WWC2 (11732394_at) / Fold change /veh CLDN22 /// WWC2 (11732394_at) / RFU HLA-DPB1 (11760878_x_at) / Fold change /veh HLA-DPB1 (11760878_x_at) / RFU SPINT1 (11716480_a_at) / Fold change /veh SPINT1 (11716480_a_at) / RFU GAP43 (11754022_s_at) / Fold change /veh GAP43 (11754022_s_at) / RFU A4GNT (11735810_at) / Fold change /veh A4GNT (11735810_at) / RFU PRB3 (11715151_x_at) / Fold change /veh PRB3 (11715151_x_at) / RFU TUBB4B (11761932_at) / Fold change /veh TUBB4B (11761932_at) / RFU CAPN14 (11732068_a_at) / Fold change /veh CAPN14 (11732068_a_at) / RFU TMCC2 (11721928_a_at) / Fold change /veh TMCC2 (11721928_a_at) / RFU IRGQ (11745062_a_at) / Fold change /veh IRGQ (11745062_a_at) / RFU FAM174B (11720279_a_at) / Fold change /veh FAM174B (11720279_a_at) / RFU TMPRSS4 (11748680_a_at) / Fold change /veh TMPRSS4 (11748680_a_at) / RFU FAM212B (11763350_a_at) / Fold change /veh FAM212B (11763350_a_at) / RFU PLEKHG5 (11743358_a_at) / Fold change /veh PLEKHG5 (11743358_a_at) / RFU ZSCAN30 (11745921_a_at) / Fold change /veh ZSCAN30 (11745921_a_at) / RFU CMKLR1 (11741424_a_at) / Fold change /veh CMKLR1 (11741424_a_at) / RFU LOC101060620 /// MAPK8IP1 (11723275_at) / Fold change /veh LOC101060620 /// MAPK8IP1 (11723275_at) / RFU SPTSSB (11747773_x_at) / Fold change /veh SPTSSB (11747773_x_at) / RFU PRSS12 (11739890_at) / Fold change /veh PRSS12 (11739890_at) / RFU BIN1 (11741810_x_at) / Fold change /veh BIN1 (11741810_x_at) / RFU WNT11 (11732464_a_at) / Fold change /veh WNT11 (11732464_a_at) / RFU C10orf10 (11716521_a_at) / Fold change /veh C10orf10 (11716521_a_at) / RFU C5orf56 (11738089_at) / Fold change /veh C5orf56 (11738089_at) / RFU CYB561 (11721691_x_at) / Fold change /veh CYB561 (11721691_x_at) / RFU ANKRD19P (11752326_a_at) / Fold change /veh ANKRD19P (11752326_a_at) / RFU OR2T12 /// OR2T33 /// OR2T8 (11738714_s_at) / Fold change /veh OR2T12 /// OR2T33 /// OR2T8 (11738714_s_at) / RFU VCAN (11748164_a_at) / Fold change /veh VCAN (11748164_a_at) / RFU JSRP1 (11732532_at) / Fold change /veh JSRP1 (11732532_at) / RFU KRTAP10-11 (11738290_x_at) / Fold change /veh KRTAP10-11 (11738290_x_at) / RFU MYO3A (11730013_a_at) / Fold change /veh MYO3A (11730013_a_at) / RFU EBF3 (11725865_a_at) / Fold change /veh EBF3 (11725865_a_at) / RFU CAMK2N1 (11719241_x_at) / Fold change /veh CAMK2N1 (11719241_x_at) / RFU C5orf56 (11738088_a_at) / Fold change /veh C5orf56 (11738088_a_at) / RFU OLFML3 (11715873_a_at) / Fold change /veh OLFML3 (11715873_a_at) / RFU LOC100653217 /// NTM (11731650_a_at) / Fold change /veh LOC100653217 /// NTM (11731650_a_at) / RFU MAPK11 (11762145_a_at) / Fold change /veh MAPK11 (11762145_a_at) / RFU FIZ1 (11724087_x_at) / Fold change /veh FIZ1 (11724087_x_at) / RFU OASL (11726364_x_at) / Fold change /veh OASL (11726364_x_at) / RFU SOX15 (11748057_x_at) / Fold change /veh SOX15 (11748057_x_at) / RFU CD79A (11719716_a_at) / Fold change /veh CD79A (11719716_a_at) / RFU HIST1H1D (11736915_at) / Fold change /veh HIST1H1D (11736915_at) / RFU CASKIN2 (11723855_a_at) / Fold change /veh CASKIN2 (11723855_a_at) / RFU LOC730098 (11760151_x_at) / Fold change /veh LOC730098 (11760151_x_at) / RFU OR4N2 (11742367_at) / Fold change /veh OR4N2 (11742367_at) / RFU PRRT2 (11749266_a_at) / Fold change /veh PRRT2 (11749266_a_at) / RFU SNX32 (11753110_a_at) / Fold change /veh SNX32 (11753110_a_at) / RFU CDHR5 (11726645_a_at) / Fold change /veh CDHR5 (11726645_a_at) / RFU RCAN1 (11760418_a_at) / Fold change /veh RCAN1 (11760418_a_at) / RFU FAM167A (11723789_a_at) / Fold change /veh FAM167A (11723789_a_at) / RFU FAM26E (11764081_at) / Fold change /veh FAM26E (11764081_at) / RFU ISYNA1 (11749810_s_at) / Fold change /veh ISYNA1 (11749810_s_at) / RFU ACY1 (11761880_at) / Fold change /veh ACY1 (11761880_at) / RFU 11764098_at / Fold change /veh 11764098_at / RFU SAMD14 (11745864_x_at) / Fold change /veh SAMD14 (11745864_x_at) / RFU NPB (11741838_a_at) / Fold change /veh NPB (11741838_a_at) / RFU TMPRSS6 (11731388_a_at) / Fold change /veh TMPRSS6 (11731388_a_at) / RFU KRTAP10-2 (11738614_at) / Fold change /veh KRTAP10-2 (11738614_at) / RFU ARHGAP8 /// PRR5-ARHGAP8 (11727945_x_at) / Fold change /veh ARHGAP8 /// PRR5-ARHGAP8 (11727945_x_at) / RFU KRTAP5-7 /// NADSYN1 (11734609_at) / Fold change /veh KRTAP5-7 /// NADSYN1 (11734609_at) / RFU RASL12 (11751679_a_at) / Fold change /veh RASL12 (11751679_a_at) / RFU CDKN2B (11736163_a_at) / Fold change /veh CDKN2B (11736163_a_at) / RFU PRF1 (11729649_at) / Fold change /veh PRF1 (11729649_at) / RFU, ZNF638 /// ZNF638-IT1 / Fold change vs veh, ZNF638 /// ZNF638-IT1 / RFU, PANK3 / Fold change vs veh, PANK3 / RFU, SH3YL1 / Fold change vs veh, SH3YL1 / RFU, ZEB2 / Fold change vs veh, ZEB2 / RFU, NRIP1 / Fold change vs veh, NRIP1 / RFU, PTTG1IP / Fold change vs veh, PTTG1IP / RFU, CAPN2 / Fold change vs veh, CAPN2 / RFU, MED14 / Fold change vs veh, MED14 / RFU, SNORA58 / Fold change vs veh, SNORA58 / RFU, C1orf63 / Fold change vs veh, C1orf63 / RFU, LRRFIP1 / Fold change vs veh, LRRFIP1 / RFU, NDUFAF7 / Fold change vs veh, NDUFAF7 / RFU, SLC12A2 / Fold change vs veh, SLC12A2 / RFU, IBTK / Fold change vs veh, IBTK / RFU, ESF1 / Fold change vs veh, ESF1 / Fold change vs veh, TMEM50B / RFU, TAOK1 / Fold change vs veh, TAOK1 / RFU, ACBD3 / Fold change vs veh, ACBD3 / RFU, TMA16 / Fold change vs veh, TMA16 / RFU, RWDD3 / Fold change vs veh, RWDD3 / RFU, BCAT1 / Fold change vs veh, BCAT1 / RFU, EDEM3 / Fold change vs veh, EDEM3 / RFU, TMEM33 / Fold change vs veh, TMEM33 / RFU, WDR75 / Fold change vs veh, WDR75 / RFU, AHCTF1 / Fold change vs veh, AHCTF1 / RFU, TFRC / Fold change vs veh, TFRC / RFU, ZDHHC17 / Fold change vs veh, ZDHHC17 / RFU, NOM1 / Fold change vs veh, NOM1 / RFU, ARL8B / Fold change vs veh, ARL8B / RFU, ZBTB11 / Fold change vs veh, ZBTB11 / RFU, TAMM41 / Fold change vs veh, TAMM41 / RFU, KIAA1704 /// LOC100996395 / Fold change vs veh, KIAA1704 /// LOC100996395 / RFU, ING1 / Fold change vs veh, ING1 / RFU, TRMT61B / Fold change vs veh, TRMT61B / RFU, FUBP3 / Fold change vs veh, FUBP3 / RFU, TP53 / Fold change vs veh, TP53 / RFU, TNKS2 / Fold change vs veh, TNKS2 / RFU, ZFP14 / Fold change vs veh, ZFP14 / RFU, ACTR2 / Fold change vs veh, ACTR2 / RFU, PPP3R1 / Fold change vs veh, PPP3R1 / RFU, PIK3R1 / Fold change vs veh, PIK3R1 / RFU, HNRNPA1 / Fold change vs veh, HNRNPA1 / RFU, RNF170 / Fold change vs veh, RNF170 / RFU, ZNF28 / Fold change vs veh, ZNF28 / RFU, RNGTT / Fold change vs veh, RNGTT / RFU, OGT / Fold change vs veh, OGT / RFU, BRD1 / Fold change vs veh, BRD1 / RFU, MARS / Fold change vs veh, MARS / RFU, ZNF655 / Fold change vs veh, ZNF655 / RFU, FAHD1 / Fold change vs veh, FAHD1 / RFU, BDP1 / Fold change vs veh, BDP1 / RFU, LRRCC1 / Fold change vs veh, LRRCC1 / RFU, ARID1A / Fold change vs veh, ARID1A / RFU, ZNF146 / Fold change vs veh, ZNF146 / RFU, ZNF330 / Fold change vs veh, ZNF330 / RFU, GPN3 / Fold change vs veh, GPN3 / RFU, C9orf123 / Fold change vs veh, C9orf123 / RFU, N4BP2L2 / Fold change vs veh, N4BP2L2 / RFU, ARFIP1 / Fold change vs veh, ARFIP1 / RFU, FAM179B / Fold change vs veh, FAM179B / RFU, BCL10 / Fold change vs veh, BCL10 / RFU, UHRF1BP1L / Fold change vs veh, UHRF1BP1L / RFU, BET1 / Fold change vs veh, BET1 / RFU, CNOT2 / Fold change vs veh, CNOT2 / RFU, ZNF268 / Fold change vs veh, ZNF268 / Fold change vs veh, ZNF507 / RFU, DGCR2 / Fold change vs veh, DGCR2 / RFU, WDSUB1 / Fold change vs veh, WDSUB1 / Fold change vs veh, HSP90B1 /// MIR3652 / RFU, ADSS / Fold change vs veh, ADSS / RFU, GK / Fold change vs veh, GK / RFU, ZNF148 / Fold change vs veh, ZNF148 / RFU, TAF9 / Fold change vs veh, TAF9 / RFU, SLC1A5 / Fold change vs veh, SLC1A5 / RFU, SLMO2 / Fold change vs veh, SLMO2 / RFU, ABCC4 / Fold change vs veh, ABCC4 / RFU, LOC101060439 /// RAP1B / Fold change vs veh, LOC101060439 /// RAP1B / RFU, RFX7 / Fold change vs veh, RFX7 / RFU, GTPBP10 / Fold change vs veh, GTPBP10 / RFU, CNEP1R1 / Fold change vs veh, CNEP1R1 / RFU, BIVM-ERCC5 /// ERCC5 / Fold change vs veh, BIVM-ERCC5 /// ERCC5 / RFU, ILF3 / Fold change vs veh, ILF3 / RFU 11762660_at / Fold change /veh 11762660_at / RFU VCAN (11757783_s_at) / Fold change /veh VCAN (11757783_s_at) / RFU DDX43 (11728927_at) / Fold change /veh DDX43 (11728927_at) / RFU KRT8 (11758188_x_at) / Fold change /veh KRT8 (11758188_x_at) / RFU NKD1 (11759106_at) / Fold change /veh NKD1 (11759106_at) / RFU SRD5A1 (11742802_a_at) / Fold change /veh SRD5A1 (11742802_a_at) / RFU TPSAB1 /// TPSB2 (11721975_s_at) / Fold change /veh TPSAB1 /// TPSB2 (11721975_s_at) / RFU GSTM3 (11746129_a_at) / Fold change /veh GSTM3 (11746129_a_at) / RFU IL23R (11737362_x_at) / Fold change /veh IL23R (11737362_x_at) / RFU TMEM51 (11727254_a_at) / Fold change /veh TMEM51 (11727254_a_at) / RFU PIWIL2 (11732686_x_at) / Fold change /veh PIWIL2 (11732686_x_at) / RFU ORM1 (11744905_x_at) / Fold change /veh ORM1 (11744905_x_at) / RFU CCDC152 (11743942_at) / Fold change /veh CCDC152 (11743942_at) / RFU ECM1 (11717891_a_at) / Fold change /veh ECM1 (11717891_a_at) / RFU IL23R (11748794_a_at) / Fold change /veh IL23R (11748794_a_at) / RFU TNFAIP8L3 (11732012_x_at) / Fold change /veh TNFAIP8L3 (11732012_x_at) / RFU MBOAT4 (11741988_at) / Fold change /veh MBOAT4 (11741988_at) / RFU 11764193_at / Fold change /veh 11764193_at / RFU TMEM53 (11763286_at) / Fold change /veh TMEM53 (11763286_at) / RFU MAGEB2 (11727129_at) / Fold change /veh MAGEB2 (11727129_at) / RFU TMEM200A (11744735_a_at) / Fold change /veh TMEM200A (11744735_a_at) / RFU CCDC152 (11751479_a_at) / Fold change /veh CCDC152 (11751479_a_at) / RFU FAM211A (11726209_a_at) / Fold change /veh FAM211A (11726209_a_at) / RFU RGS16 (11746705_a_at) / Fold change /veh RGS16 (11746705_a_at) / RFU VCAN (11755009_s_at) / Fold change /veh VCAN (11755009_s_at) / RFU RHOB (11743442_s_at) / Fold change /veh RHOB (11743442_s_at) / RFU RGS16 (11720943_a_at) / Fold change /veh RGS16 (11720943_a_at) / RFU RGS16 (11720944_at) / Fold change /veh RGS16 (11720944_at) / RFU, VPS4B / Fold change vs veh, VPS4B / RFU, CREB1 / Fold change vs veh, CREB1 / RFU, DNAJC13 / Fold change vs veh, DNAJC13 / RFU, GNAQ / Fold change vs veh, GNAQ / RFU, CDK5R1 / Fold change vs veh, CDK5R1 / RFU, ZRANB3 / Fold change vs veh, ZRANB3 / RFU, CUL4A / Fold change vs veh, CUL4A / RFU, CCNY / Fold change vs veh, CCNY / RFU, UFL1 / Fold change vs veh, UFL1 / RFU, COG3 / Fold change vs veh, COG3 / RFU, DIAPH2 / Fold change vs veh, DIAPH2 / RFU, SKA2 / Fold change vs veh, SKA2 / RFU, AFF3 / Fold change vs veh, AFF3 / RFU, LMF1 / Fold change vs veh, LMF1 / RFU, IPO11 / Fold change vs veh, IPO11 / RFU, DFFB / Fold change vs veh, DFFB / RFU, FOXP1 / Fold change vs veh, FOXP1 / RFU, CARD8 / Fold change vs veh, CARD8 / RFU, STRN3 / Fold change vs veh, STRN3 / RFU, ADK / Fold change vs veh, ADK / RFU, RASSF2 / Fold change vs veh, RASSF2 / RFU, WIPF1 / Fold change vs veh, WIPF1 / RFU, LARP1B / Fold change vs veh, LARP1B / RFU, RASA1 / Fold change vs veh, RASA1 / RFU, RB1 / Fold change vs veh, RB1 / RFU, PPFIA1 / Fold change vs veh, PPFIA1 / RFU, MAT2A / Fold change vs veh, MAT2A / RFU, CCT5 / Fold change vs veh, CCT5 / RFU, WDR92 / Fold change vs veh, WDR92 / RFU, CUX1 / Fold change vs veh, CUX1 / RFU, TTC7A / Fold change vs veh, TTC7A / RFU, TMEM135 / Fold change vs veh, TMEM135 / RFU, DEPTOR / Fold change vs veh, DEPTOR / RFU, CPM / Fold change vs veh, CPM / RFU, DNAJB6 / Fold change vs veh, DNAJB6 / RFU, CACNA2D3 / Fold change vs veh, CACNA2D3 / RFU, DTX4 / Fold change vs veh, DTX4 / RFU, TFCP2 / Fold change vs veh, TFCP2 / RFU, GMCL1 /// GMCL1P1 / Fold change vs veh, GMCL1 /// GMCL1P1 / RFU, AEBP2 / Fold change vs veh, AEBP2 / RFU, SNHG1 /// SNORD22 /// SNORD25 /// SNORD26 /// SNORD27 /// SNORD28 /// SNORD29 /// SNORD31 / Fold change vs veh, SNHG1 /// SNORD22 /// SNORD25 /// SNORD26 /// SNORD27 /// SNORD28 /// SNORD29 /// SNORD31 / Fold change (Aza/veh), C12orf56 (ProbeSet 11735607_a_at) / Fold change (ACY-1035/veh), C12orf56 (ProbeSet 11735607_a_at) / Fold change (Aza/veh), FGFR1OP (ProbeSet 11751329_s_at) / Fold change (ACY-1035/veh), FGFR1OP (ProbeSet 11751329_s_at) / Fold change (Aza/veh), VPS36 (ProbeSet 11739960_a_at) / Fold change (ACY-1035/veh), VPS36 (ProbeSet 11739960_a_at) / RFU SYPL1 (11715823_x_at) / Fold change /veh SYPL1 (11715823_x_at) / RFU IGFBP7 (11715501_s_at) / Fold change /veh IGFBP7 (11715501_s_at) / RFU REEP3 (11722064_at) / Fold change /veh REEP3 (11722064_at) / RFU IGLL1 (11728026_x_at) / Fold change /veh IGLL1 (11728026_x_at): dose or concentration left out as unconfirmed
Conditions: ProbeSet 11727545_at; LIST B

With `Nc1ccc(-c2cccs2)cc1NC(=O)c1ccc2c(c1)cc(C1CC1)n2CCN1CCOCC1` [ACY-1035] the “RFU, PANK3” value was 81.04 RFU.
